Consider seven molecules from article PMC3913682, “A Monoclonal Antibody TrkB Receptor Agonist as a Potential Therapeutic for Huntington’s Disease” (PLoS ONE, 2014).

What is called EC50 is the concentration at which the effect is half-maximal.

In data set [1] the target is T1, TrkB (Homo sapiens, UniProt Q16620). Details: host or cells: CHO-K1. The following applies: cited from earlier work.
Data set [2] can be described thus: Solubility assay under CellSensor assay conditions (HPLC-UV). The data set is classed as physicochemical. As to conditions: for Concentration @ t = 0: 0 hours; for Concentration @ t = 0 / Concentration @ t = 3 / Concentration @ t = 7: assay buffer, 0.5% DMSO; for Concentration @ t = 3: 3 hours; for Concentration @ t = 7: 7 hours. Here is the method:
To align with the functional data, all compound samples and dilutions were prepared using the CellSensor® assay conditions that include: assay buffer, plates, sample volumes and the same timeframe. The assay incubation time was 7 hours. 0, 3 and 7 hour samples were analysed, in triplicate, in the final assay buffer (DMEM/Glutamax + NEAA + 20 mM Hepes pH7.4 + 0.01% BSA, final DMSO concentration 0.5%) at nominal compound concentrations of 5, 20 and 50 µM. […] The 7 and 3 hour samples were prepared at times which allowed simultaneous filtering and sample analysis.

In data set [3] the test system is TrkB phosphorylation. The experiment in a line: Western blot of TrkB phosphorylation in rat primary cortico-striatal co-cultures. The following applies: 15 minutes; non-transfected; Figure 7B, C. The data set is classed as cell-based. From the text:
(§1) Clarified cell lysates were resolved by SDS-PAGE, blotted onto nitrocellulose membranes and immunoprobed with the relevant primary and secondary antibody combinations. Anti-pTrkB Tyr^516 (4619), anti-pTrkB Tyr^706/707 (4621), anti-pTrkB, Tyr^816 (4168), anti-pERK1/2 […], anti-pAKT […], anti-TrkB (4603), anti-AKT (4685) and anti-ERK1/2 (4695) were sourced from Cell Signalling Technologies. Anti-GAPDH (IMG-5143A) was obtained from Imgenex; Goat anti-rabbit HRP conjugate (PO448) and Goat anti-mouse HRP conjugate (PO447) were sourced from Dako. Goat anti-mouse 800CW conjugate and Goat anti-rabbit 680 conjugate were sourced from LI-COR. Immunoreactive signals were detected using enhanced chemiluminescence reagent (Amersham) or using the Odyssey infra-red reader.
On the technique in general: A western blot detects proteins with antibodies after separation by electrophoresis.

In data set [4] the test system is striatal neurons. The experiment in a line: Primary neuronal mHTT-induced cell death assay (cortico-striatal co-culture). The data set is classed as cell-based, rat. From the text: Cortical and striatal neurons were isolated from E18 rat embryos and separately transfected with a HTT exon1 fragment containing 73 CAG repeats (HTTN90Q73), together with a plasmid encoding for either a green AcGFP or a red AsRed fluorescent reporter before being plated on glial cells and treated with candidate pharmacological agents. After 5 days in culture, the number of fluorescent cells remaining was counted using an automated high content imaging and analysis platform (GE Healthcare InCell 2000) and any changes in neuronal survival quantified.

The subject of data set [5] is Hippocampal HT-22 (TrkB-null cell line). Details: method as in PMID 21651962. As to conditions: cited from earlier work.
Data set [6] has as its system Trk null-NFAT-bla CHO-K1 cells. The experiment in a line: CellSensor Trk null-NFAT-bla CHO-K1 reporter gene assay. The data set is classed as cell-based. As to conditions: Cricetulus griseus, Figure 2D, 5 hours. As to the method: The assays were configured using Invitrogen CHO-K1 cell lines stably expressing a β-lactamase gene under the control of a NFAT promoter region and the relevant Trk (A, B or C) receptor (except for the Trk null cell line). The activity of the β-lactamase enzyme was quantified via FRET with a fluorescent substrate containing a β-lactam ring, according to manufacturer’s provided protocol. All CellSensor® NFAT-bla CHO-K1 cell lines were seeded into black 384w assay plates in CellSensor® plating media (growth media without antibiotics) at 5,000 cells in a volume of 25 µL per well; cells were incubated at 37°C, 5% CO2 overnight. Then, the assay plating media was removed and replaced with 32 µL of assay media (plating media without serum) and returned to the incubator for 1 hour. […] Levels of β-lactamase activity were then quantified by measuring the fluorescent intensity ratio between ^EX400nm/^EM535nm and ^EX400nm/^EM460nm and cytotoxicity quantified by measuring the fluorescence intensity at ^EX590nm/^EM665nm using a Perkin Elmer EnVision.
In general terms: A reporter such as luciferase makes a cellular process visible.

For data set [7], the system named is TrkB, AKT and ERK1/2 phosphorylation. The experiment in a line: Western blot of TrkB, AKT and ERK1/2 phosphorylation in TrkB-NFAT-bla CHO-K1 cells. The data set is classed as cell-based. The following applies: Figure 6E.
From the text: as §1

Data set [8] has as its target T1, TrkB. The experiment in a line: CellSensor TrkB-NFAT-bla CHO-K1 reporter gene assay (agonist, antagonist, PAM modes). The data set is classed as cell-based. Details: host or cells: CHO-K1. As to the method: The assays were configured using Invitrogen CHO-K1 cell lines stably expressing a β-lactamase gene under the control of a NFAT promoter region and the relevant Trk (A, B or C) receptor (except for the Trk null cell line). The activity of the β-lactamase enzyme was quantified via FRET with a fluorescent substrate containing a β-lactam ring, according to manufacturer’s provided protocol. All CellSensor® NFAT-bla CHO-K1 cell lines were seeded into black 384w assay plates in CellSensor® plating media (growth media without antibiotics) at 5,000 cells in a volume of 25 µL per well; cells were incubated at 37°C, 5% CO2 overnight. Then, the assay plating media was removed and replaced with 32 µL of assay media (plating media without serum) and returned to the incubator for 1 hour. […] Test compounds were added (4 µL) and cells were returned to the incubator for 1 hour; dependent on assay mode (agonist, antagonist or positive allosteric modulator) assay media alone (agonist mode), assay media containing EC80 neurotrophin (antagonist mode) or assay media containing EC20 neurotrophin (PAM mode) were then added to the cells (4 µL) for a further 4 hour incubation. ToxBLAzer detection reagent was reconstituted according to the manufacturer’s instructions and 8 µL/well added to the assay plates, these were then incubated at room temperature protected from light for 2 hours. Levels of β-lactamase activity were then quantified by measuring the fluorescent intensity ratio between ^EX400nm/^EM535nm and ^EX400nm/^EM460nm and cytotoxicity quantified by measuring the fluorescence intensity at ^EX590nm/^EM665nm using a Perkin Elmer EnVision.

Data set [9] deals with T1, TrkB. Also noted: method as in PMID 19549602. The following applies: hippocampal neurons; cited from earlier work.
The target of data set [10] is T1, TrkB. The experiment in a line: DiscoveRx PathHunter U2OS TrkB enzyme fragment complementation (EFC) assay. The data set is classed as cell-based. As to conditions: Figure 6C; read-out: BDNF potency (EC50), PathHunter EFC, agonist mode. From the text: The assay was configured using DiscoveRx PathHunter® U2OS cell line stably co-expressing two cDNAs: a ProLink™ (PK) tagged TrkB receptor and an Enzyme Acceptor (EA) tagged SH2 domain. Activation of the TrkB-PK receptor induces receptor dimerization and trans-phosphorylation, leading to SH2-EA recruitment, and thereby forcing complementation of the two β-galactosidase enzyme fragments (EA and PK). The resulting functional enzyme hydrolyzes substrate to generate a chemiluminescent signal. U2OS-TrkB PathHunter® cells were seeded into white 384w assay plates in plating media (1x MEM; 0.5% v/v horse serum) at 10,000 cells in a volume of 20 µL per well, cells were incubated at 37°C, 5% CO2 overnight to adhere to assay plates. Test compounds were added (5 µL) to the cells and the plates were returned to the incubator for 1 hour; dependent on assay mode (agonist, antagonist or positive allosteric modulator) assay media alone (agonist mode), assay media containing EC80 BDNF (antagonist mode) or assay media containing EC20 BDNF (PAM mode) were then added to the cells (5 µL) for a further 4 hour incubation at room temperature. PathHunter® detection reagent was then added (15 µL/well) and incubated at room temperature protected from light for 1 hour. Levels of β-galactosidase activity were then quantified by measuring the chemiluminescent signal obtained using a Perkin Elmer EnVision.

T1 sequence (Q16620 32-822): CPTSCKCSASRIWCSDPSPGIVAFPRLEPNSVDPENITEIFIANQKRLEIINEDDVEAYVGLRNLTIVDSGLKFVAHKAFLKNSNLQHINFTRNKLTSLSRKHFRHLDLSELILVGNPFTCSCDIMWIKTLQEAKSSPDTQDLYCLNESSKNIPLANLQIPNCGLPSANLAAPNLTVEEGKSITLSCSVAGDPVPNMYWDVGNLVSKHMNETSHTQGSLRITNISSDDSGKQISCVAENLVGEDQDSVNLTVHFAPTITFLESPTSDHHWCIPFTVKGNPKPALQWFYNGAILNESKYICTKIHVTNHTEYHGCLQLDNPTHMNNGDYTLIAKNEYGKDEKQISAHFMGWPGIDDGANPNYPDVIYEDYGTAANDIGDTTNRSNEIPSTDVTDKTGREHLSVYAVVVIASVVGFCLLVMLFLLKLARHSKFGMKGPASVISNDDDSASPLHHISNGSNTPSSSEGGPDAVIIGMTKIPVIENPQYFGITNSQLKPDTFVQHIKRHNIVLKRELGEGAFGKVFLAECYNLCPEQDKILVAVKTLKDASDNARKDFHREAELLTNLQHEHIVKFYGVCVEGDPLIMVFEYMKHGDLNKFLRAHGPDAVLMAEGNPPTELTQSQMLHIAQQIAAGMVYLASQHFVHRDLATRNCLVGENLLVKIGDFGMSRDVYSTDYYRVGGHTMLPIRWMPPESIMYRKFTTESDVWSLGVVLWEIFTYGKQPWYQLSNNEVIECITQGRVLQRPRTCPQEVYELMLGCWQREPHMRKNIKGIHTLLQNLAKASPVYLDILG

As for `O=c1cc(-c2ccccc2)oc2c(O)c(O)ccc12` [7,8-dihydroxyflavone], in data set [1], the “Published in vitro activity (in words)” value was “Neuronal TrkB agonist; Promotes neurogenesis” and the “Published in vitro activity: Activity” value was 10 to 250 nM. In addition, the “Compound remaining in solution” value in [2] (beyond the tested lower concentration of 5 µM, NFAT assay solutions) is reported as around 20%. For the same molecule, in data set [2] (nominal concentration 5 µM), the “Concentration @ t = 0” value is 0.49 µM, the “Concentration @ t = 3” value is on record as 0.24 µM and the “Concentration @ t = 7” value was determined as 2.3 µM. Also, in [2] (nominal concentration 20 µM), the “Concentration @ t = 0” value was determined as 3.0 µM, the “Concentration @ t = 3” value worked out at 1.9 µM and the “Concentration @ t = 7” value came to 5.2 µM. Also, in data set [2] (nominal concentration 50 µM), the “Concentration @ t = 0” value is recorded as 13 µM, the “Concentration @ t = 3” value was 10 µM and the “Concentration @ t = 7” value came out at 13 µM. Further, the “Induction of TrkB phosphorylation (in words)” value in [3] is given as “failed to mimic the ability of BDNF”. Further, in data set [4] (Figure 7A), the “Protection of striatal neurons from mHTT-induced cell death (in words)” value was “failed to mimic the ability of BDNF”. Further, the “Concentrations at which toxicity was evident” value in [4] (rat cortico-striatal co-culture) was at least 20 µM. The “Concentrations showing toxicity effects, HT-22 cell viability” value in data set [5] is “above 20 µM”.
On to `C/C=C(/C)C(=O)O[C@H]1C(C)=C2[C@H]([C@@H]1OC(=O)CCCCCCC)[C@@](C)(OC(C)=O)C[C@H](OC(=O)CCC)[C@@]1(O)[C@H]2OC(=O)[C@@]1(C)O` [Thapsigargin], for which, in data set [6], the EC50 turned out to be 1.6 nM.
Take `COC(=O)[C@H]1[C@H]2C[C@@H]3c4[nH]c5cc(OC)ccc5c4CCN3C[C@H]2C[C@@H](OC(=O)c2cc(OC)c(OC)c(OC)c2)[C@@H]1OC` [Reserpine]: in data set [2] (nominal concentration 5 µM), the “Concentration @ t = 0” value was 2.8 µM, the “Concentration @ t = 3” value was found to be 3.0 µM and the “Concentration @ t = 7” value came out at 3.7 µM. In data set [2] (nominal concentration 20 µM), the “Concentration @ t = 0” value amounted to 3.4 µM, the “Concentration @ t = 3” value came out at 2.9 µM and the “Concentration @ t = 7” value is given as 4.5 µM. Further, in data set [2] (nominal concentration 50 µM), the “Concentration @ t = 0” value is on record as 6.7 µM, the “Concentration @ t = 3” value amounted to 4.5 µM and the “Concentration @ t = 7” value came out at 6.9 µM.
For `CC(=O)NCCc1c[nH]c2ccc(O)cc12` [N-acetyl serotonin], in data set [7] (LM22A-4 at low (10 µM) and high (83 µM), N-acetyl serotonin at high (83 µM) concentration), the “Basal phospho-ERK1/2 immunoreactive bands” value is on record as “absence of immunoreactive bands”. Further, in data set [1], the “Published in vitro activity (in words)” value is reported as “Neuronal TrkB agonist” and the “Published in vitro activity: Activity” value is given as 100 nM. In addition, in [2] (nominal concentration 5 µM), the “Concentration @ t = 0” value was 7.6 µM, the “Concentration @ t = 3” value was found to be 8.8 µM and the “Concentration @ t = 7” value is reported as 10 µM. Also, in data set [2] (nominal concentration 20 µM), the “Concentration @ t = 0” value stood at 13 µM, the “Concentration @ t = 3” value was 14 µM and the “Concentration @ t = 7” value came out at 17 µM. Further, in [2] (nominal concentration 50 µM), the “Concentration @ t = 0” value came to 38 µM, the “Concentration @ t = 3” value came to 44 µM and the “Concentration @ t = 7” value turned out to be 49 µM.
`CN(C)CCC=C1c2ccccc2CCc2ccccc21` [Amitriptyline]: in [1], the “Published in vitro activity (in words)” value is “Neuronal TrkA/B agonist; Neuroprotective” and the “Published in vitro activity: Activity” value was 10 to 250 nM. Also, in data set [2] (nominal concentration 5 µM), the “Concentration @ t = 0” value stood at 3.7 µM, the “Concentration @ t = 3” value came to 4.3 µM and the “Concentration @ t = 7” value amounted to 3.2 µM. Moreover, in data set [2] (nominal concentration 20 µM), the “Concentration @ t = 0” value is on record as 7.6 µM, the “Concentration @ t = 3” value amounted to 7.1 µM and the “Concentration @ t = 7” value is reported as 5.9 µM. Further, in data set [2] (nominal concentration 50 µM), the “Concentration @ t = 0” value is 33 µM, the “Concentration @ t = 3” value was 27 µM and the “Concentration @ t = 7” value is 27 µM. Besides, the “PAM activity, NFAT reporter gene assay, PAM mode (in words)” value in data set [8] (Figure 6B, in presence of ~EC20 BDNF (40 pM)) is “concentration-dependent TrkB inhibition”. Also, in [9], the “Potency relative to the cognate neurotrophin (less potent)” value is on record as around 100 fold.
As to `COc1ccc(C(=O)c2cn(C(C)C)c3ncnc(N)c23)cc1NC(=O)Nc1ccc(Cl)cc1Cl` [pan-Trk kinase inhibitor, 1-(5-(4-amino-7-isopropyl-7H-pyrrolo[2,3-d]pyrimidine-5-carbonyl)-2-methoxyphenyl)-3-(2,4-dichlorophenyl)urea], the “Effect on induction of NFAT activity by TrkB mAbs” value in [8] (co-incubation, pan-Trk inhibitor 100 nM) is recorded as “completely prevented”. The “Effect on antibody effects in striatal neurons” value in [4] (data not shown) was “reversed”.

B1: Brain-derived neurotrophic factor (protein, UniProt P23560 19-247, looked up)
Neurotrophic factor BDNF …: APMKEANIRGQGGLAYPGVRTHGTLESVNGPKAGSRGLTSLADTFEHVIEELLDEDQKVRPNEENNKDADLYTSRVMLSSQVPLEPPLLFLLEEYKNYLDAANMSMRVRRHSDPARRGELSVCDSISEWVTAADKKTAVDMSGGTVTVLEKVPVSKGQLKQYFYETKCNPMGYTKEGCRGIDKRHWNSQCRTTQSYVRALTMDSKKRIGWRFIRIDTSCVCTLTIKRGR
notes: Neuroprotective secreted protein, cognate neurotrophin of TrkB
For the molecule B1, in data set [7] (5 hours treatment), the “TrkB, ERK1/2 and AKT phosphorylation (pathway activation)” value is “induced phosphorylation of TrkB, ERK1/2 and AKT”. In addition, the EC50 was 0.823 nM in data set [10]; 0.145 nM in [8] (Figure 4A, 5 hours, read-out: EC50, TrkB-NFAT-bla reporter, agonist mode); 0.323 nM in data set [8] (Figure 6A, read-out: BDNF potency (EC50), CellSensor NFAT reporter, agonist mode); 0.214 nM in data set [4] (Figure 7A, normalized to 1 nM BDNF (100% Rescue) and vehicle (0%), read-out: EC50, % Rescue of striatal neurons from mHTT-induced cell death).
